Columns and labels:
IMR90-progerin cells = assay: 53BP1 foci in IMR90-progerin cells; assay type: cell-based, human; conditions: IMR90-Flag-progerin+UPCP
Protocol: (§1) Immunofluorescence was performed as described previously. Cells were plated on cover slips in 12-well plates, left overnight before the treatment. Cells were fixed in 1% formaldehyde in culture medium for 10 min at 37 °C and permeabilized with 0.2% Triton X-100 in PBS for 10 min at room temperature. Cells were washed twice in PBS and blocked for 1 h with 5% BSA in PBS and then incubated with primary antibodies at 4 °C overnight, washed three times in PBS and incubated with secondary antibodies for 1 h at room temperature. Cell nuclei were counterstained with a 500 nM concentration of 4,6-diamidino-2-phenylindole (DAPI) (Sigma). Images were acquired by a fluorescence microscope (OLYMPUS FV-1000, Carl Zeiss LSM880 or Leica DMi8) and analyzed with software NIS-Elements AR v.5.0.1 (Nikon), FLUOVIEW v.4.2b (OLYMPUS), ZEN v.2.3 SP1 (Carl Zeiss) and Leica Application Suite X v.3.6.0.24 (Leica). Cells were quantified by investigators who were blinded to the identity of the analyzed cell.

HGADFN003 cells = assay: γH2AX-53BP1 foci in HGADFN003 cells; assay type: cell-based, human
Protocol: as §1

[1] = tested on: BUBR1, HMGA1, KDM1A, ZNF143 and FOXM1 mRNA; assay: RT-PCR of BUBR1 and its transcription factors in HGADFN003 cells; assay type: cell-based, human; conditions: for BUBR1 relative (to β-actin) mRNA level (2-ΔΔCt) / FOXM1 relative (to β-actin) mRNA level (2-ΔΔCt) / HMGA1 relative (to β-actin) mRNA level (2-ΔΔCt) / KDM1A relative (to β-actin) mRNA level (2-ΔΔCt) / ZNF143 relative (to β-actin) mRNA level (2-ΔΔCt): Fig. 4a, HGADFN003, vs Mock = 1; for BUBR1 relative (to β-actin) mRNA level (2-ΔΔCt): P=0.0003; for FOXM1 relative (to β-actin) mRNA level (2-ΔΔCt): P=0.2399; for HMGA1 relative (to β-actin) mRNA level (2-ΔΔCt): P=0.9214; for KDM1A relative (to β-actin) mRNA level (2-ΔΔCt): P=0.683; for ZNF143 relative (to β-actin) mRNA level (2-ΔΔCt): P=0.9897
Protocol: RNA preparation was performed as described. Total RNA was extracted using Trizol reagent (TaKaRa) following the manufacturer’s instructions. cDNA was generated with M-MLV reverse transcriptase (Promega, catalog no. M170B). Reverse transcription with PCR (RT-PCR) was performed with SYBR Green Real-Time PCR Master Mix (TaKaRa). RT-PCR was carried out on a QuantStudio 3 Real-Time-PCR Instrument (ABI). Data were analyzed and further processed in QuantStuido Design and Analysis Software and GraphPad Prism v.7. Fold change in gene expression over control samples was calculated using the 2^–ΔΔCt method, where β-actin Ct values were used as an internal control. The primer sequences for PCR, synthesized by Comate Bioscience, were as follows:
β-actin_fwd (5′-[…]-3′) and β-actin_rev (5′-[…]-3′); AURKB_fwd (5′-[…]-3′) and AURKB_rev (5′-[…]-3′); BUB1_ fwd (5′-[…]-3′) and BUB1_rev (5′-[…]-3′); BUB1B_fwd (5′-[…]-3′) and BUB1B_ rev (5′-[…]-3′); CCNA2_fwd (5′-[…]-3′) and CCNA2_ rev (5′-[…]-3′); Mad2l1_fwd (5′-[…]-3′) and Mad2l1_ rev (5′-[…]-3′); TTK1_fwd (5′-[…]-3′) and TTK1_ rev (5′-[…]-3′); PLK1_fwd (5′-[…]-3′) and PLK1_ rev (5′-[…]-3′); PTBP1_fwd (5′-[…]-3′) and PTBP1_ rev (5′-[…]-3′); HMGA1_fwd (5′-[…]-3′) and HMGA1_ rev (5′-[…]-3′); KDM1A1_fwd (5′-[…]-3′) and KDM1A1_ rev (5′-[…]-3′); ZNF143_fwd (5′-[…]-3′) and ZNF143_ rev (5′-[…]-3′); FOXM1_fwd (5′-[…]-3′) and FOXM1_ rev (5′-[…]-3′).

[2] = tested on: BUBR1 kinetochore localization in H1299 cells; assay: Immunofluorescence, abnormal localization of BUBR1 in H1299 cells; assay type: cell-based; conditions: for Relative percentage of the number of abnormal localization cells of BUBR1: Fig. 3h, H1299, progerin+UPCP, P=0.0202 vs progerin
Protocol: as §1

Substance: H-YGRKKRRQRRRYNLRSRTVLCGTCGQPADKASASGSGAQSPQNCSIM-OH (cysteines drawn unpaired) [UPCP, unique progerin C-terminal peptide]
- 53BP1 foci per cell, n>10 (IMR90-progerin cells; replicate 1): 54%
- 53BP1 foci per cell, n≤10 (IMR90-progerin cells; replicate 1): 46%
- 53BP1 foci per cell, n>10 (IMR90-progerin cells; replicate 2): 43%
- 53BP1 foci per cell, n≤10 (IMR90-progerin cells; replicate 2): 57%
- 53BP1 foci per cell, n>10 (IMR90-progerin cells; replicate 3): 59%
- 53BP1 foci per cell, n≤10 (IMR90-progerin cells; replicate 3): 41%
- γH2AX and 53BP1 positive cells (/Mock) (HGADFN003 cells; HGADFN003, relative to Mock = 100, replicate 1): 45%
- γH2AX and 53BP1 positive cells (/Mock) (HGADFN003 cells; HGADFN003, relative to Mock = 100, replicate 2): 55%
- γH2AX and 53BP1 positive cells (/Mock) (HGADFN003 cells; HGADFN003, relative to Mock = 100, replicate 3): 50%
- γH2AX-53BP1 foci (HGADFN003 cells; HGPS fibroblasts): lower level of γH2AX-53BP1 foci
- BUBR1 relative (to β-actin) mRNA level (2-ΔΔCt) ([1]; replicate 1): 5.569
- BUBR1 relative (to β-actin) mRNA level (2-ΔΔCt) ([1]; replicate 2): 6.327
- BUBR1 relative (to β-actin) mRNA level (2-ΔΔCt) ([1]; replicate 3): 4.947
- FOXM1 relative (to β-actin) mRNA level (2-ΔΔCt) ([1]; replicate 1): 1.5201
- FOXM1 relative (to β-actin) mRNA level (2-ΔΔCt) ([1]; replicate 2): 2.139
- FOXM1 relative (to β-actin) mRNA level (2-ΔΔCt) ([1]; replicate 3): 0.8641
- HMGA1 relative (to β-actin) mRNA level (2-ΔΔCt) ([1]; replicate 1): 0.9058
- HMGA1 relative (to β-actin) mRNA level (2-ΔΔCt) ([1]; replicate 2): 1.8337
- HMGA1 relative (to β-actin) mRNA level (2-ΔΔCt) ([1]; replicate 3): 0.3934
- KDM1A relative (to β-actin) mRNA level (2-ΔΔCt) ([1]; replicate 1): 0.9262
- KDM1A relative (to β-actin) mRNA level (2-ΔΔCt) ([1]; replicate 2): 0.9644
- KDM1A relative (to β-actin) mRNA level (2-ΔΔCt) ([1]; replicate 3): 1.24
- ZNF143 relative (to β-actin) mRNA level (2-ΔΔCt) ([1]; replicate 1): 0.3607
- ZNF143 relative (to β-actin) mRNA level (2-ΔΔCt) ([1]; replicate 2): 1.774
- ZNF143 relative (to β-actin) mRNA level (2-ΔΔCt) ([1]; replicate 3): 0.8819
- BUBR1 mRNA expression ([1]; RT-PCR, HGADFN003 cells): could upregulate expression of BUBR1
- expression of transcription factors regulating BUBR1 ([1]; RT-PCR, HGADFN003 cells): had little effect on their expression
- Relative percentage of the number of abnormal localization cells of BUBR1 ([2]; replicate 1): 25%
- Relative percentage of the number of abnormal localization cells of BUBR1 ([2]; replicate 2): 18%
- Relative percentage of the number of abnormal localization cells of BUBR1 ([2]; replicate 3): 27%
- BUBR1 localization to the kinetochore ([2]; H1299 cells, immunofluorescence): correctly localized BUBR1 to the kinetochore

Source: article PMC10154249, “Unique progerin C-terminal peptide ameliorates Hutchinson–Gilford progeria syndrome phenotype by rescuing BUBR1” (Nature Aging, 2023)
